Results as given in patent US20200331904A1, “3-AMINO-[1,2,4]-TRIAZOLE DERIVATIVES AND THEIR USE FOR CONTROLLING UNDESIRED PLANT GROWTH” (Bayer CropScience Aktiengesellschaft, priority 2017, published 2020).

What was measured:
Type in all cases: in vivo
Setaria viridis [1] = assay: Pre-emergence herbicidal efficacy, SETVI; conditions: Table B1, application rate 320 g/ha, scored visually after about 3 weeks vs untreated controls
Method in brief: (§1)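 Visual percent activity relative to untreated plants (0% = like control, 100% = dead), scored about 3 weeks after treatment under greenhouse conditions.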

Echinochloa crus-galli [2] = assay: Pre-emergence herbicidal efficacy, ECHCG; conditions: Table B1, application rate 320 g/ha, scored visually after about 3 weeks vs untreated controls
Method in brief: as §1

Veronica persica [3] = assay: Pre-emergence herbicidal efficacy, VERPE; conditions: Table B1, application rate 320 g/ha, scored visually after about 3 weeks vs untreated controls
Method in brief: as §1

Lolium rigidum [4] = assay: Pre-emergence herbicidal efficacy, LOLRI; conditions: Table B1, application rate 320 g/ha, scored visually after about 3 weeks vs untreated controls
Method in brief: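 Seeds sown in pots and covered with soil. Greenhouse-grown about 3 weeks, then visually scored as % activity vs untreated controls (100% = dead, 0% = like control).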

Viola tricolor [5] = assay: Pre-emergence herbicidal efficacy, VIOTR; conditions: Table B1, application rate 320 g/ha, scored visually after about 3 weeks vs untreated controls
Method in brief: as §1

Abutilon theophrasti [6] = assay: Pre-emergence herbicidal efficacy, ABUTH; conditions: Table B1, application rate 320 g/ha, scored visually after about 3 weeks vs untreated controls
Method in brief: as §1

harmful plants [7] = assay: Pre-emergence herbicidal action; conditions: applied pre-emergence
Excerpt: C.1 Pre-Emergence Herbicidal Action and Crop Plant Compatibility
Seeds of monocotyledonous and dicotyledonous weed plants and crop plants are placed in plastic or organic planting pots and covered with soil. The compounds of the invention, formulated in the form of wettable powders (WP) or as emulsion concentrates (EC), are then applied onto the surface of the covering soil as aqueous suspension or emulsion with addition of 0.5% additive at a water application rate of […] (converted). After the treatment, the pots are placed in a greenhouse and kept under good growth conditions for the trial plants. After about 3 weeks, the effect of the preparations is scored visually in comparison with untreated controls as percentages. For example, 100% activity=the plants have died, 0% activity=like control plants.

Stellaria media [8] = assay: Pre-emergence herbicidal efficacy, STEME; conditions: Table B1, application rate 320 g/ha, scored visually after about 3 weeks vs untreated controls
Method in brief: as §1

Matricaria inodora = assay: Pre-emergence herbicidal efficacy, MATIN; conditions: Table B1, application rate 320 g/ha, scored visually after about 3 weeks vs untreated controls
Method in brief: as §1

Polygonum convolvulus = assay: Pre-emergence herbicidal efficacy, POLCO; conditions: Table B1, application rate 320 g/ha, scored visually after about 3 weeks vs untreated controls
Method in brief: as §1

Amaranthus retroflexus [9] = assay: Pre-emergence herbicidal efficacy, AMARE; conditions: Table B1, application rate 320 g/ha, scored visually after about 3 weeks vs untreated controls
Method in brief: as §1

Viola tricolor [10] = assay: Post-emergence herbicidal efficacy, VIOTR; conditions: application rate 320 g/ha, rated visually after about 3 weeks (Table B5)
Method in brief: (§2)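 Greenhouse plants in sandy loam were sprayed at the one-leaf stage, 2–3 weeks after sowing. After about 3 weeks, activity was rated visually against untreated controls, from 0% (like control) to 100% (plants dead).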

Stellaria media [11] = assay: Post-emergence herbicidal efficacy, STEME; conditions: application rate 320 g/ha, rated visually after about 3 weeks
Excerpt: (§3) ABUTH: Abutilon theophrasti ALOMY: Alopecurus myosuroides AMARE: Amaranthus retroflexus AVEFA: Avena fatua CYPES: Cyperus esculentus ECHCG: Echinochloa crus-galli LOLMU: Lolium multiflorum MATIN: Matricaria inodora PHBPU: Ipomoea purpurea POLCO: Polygonum convolvulus SETVI: Setaria viridis STEME: Stellaria media VERPE: Veronica persica VTOTR: Viola tricolor
(§4) C.2 Post-Emergence Herbicidal Action and Crop Plant Compatibility
(§5) Seeds of monocotyledonous and dicotyledonous weeds and crop plants are placed in sandy loam in plastic or organic planting pots, covered with soil and cultivated in a greenhouse under controlled growth conditions. 2 to 3 weeks after sowing, the test plants are treated at the one-leaf stage. The compounds of the invention, formulated in the form of wettable powders (WP) or as emulsion concentrates (EC), are then sprayed onto the green parts of the plants as aqueous suspension or emulsion with addition of 0.5% additive at a water application rate of […] (converted). After the test plants had been kept in the greenhouse under optimum growth conditions for about 3 weeks, the activity of the preparations is rated visually in comparison to untreated controls. For example, 100% activity=the plants have died, 0% activity=like control plants.

Amaranthus retroflexus [12] = assay: Post-emergence herbicidal efficacy, AMARE; conditions: application rate 320 g/ha
Excerpt: as §3, §4, §5

Echinochloa crus-galli [13] = assay: Post-emergence herbicidal efficacy, ECHCG; conditions: application rate 320 g/ha, rated visually after about 3 weeks
Excerpt: as §3, §4, §5

Lolium rigidum [14] = assay: Post-emergence herbicidal efficacy, LOLRI; conditions: application rate 320 g/ha, rated visually after about 3 weeks
Protocol: as §4, §5

Veronica persica [15] = assay: Post-emergence herbicidal efficacy, VERPE; conditions: application rate 320 g/ha
Method in brief: as §2

harmful plants [16] = assay: Post-emergence herbicidal action; conditions: applied post-emergence
Protocol: as §4, §5

Abutilon theophrasti [17] = assay: Post-emergence herbicidal efficacy, ABUTH; conditions: Table B6, one-leaf stage, application rate 320 g/ha, rated visually after about 3 weeks vs untreated controls
Excerpt: as §3, §4, §5

Setaria viridis [18] = assay: Post-emergence herbicidal efficacy, SETVI; conditions: Table B6, one-leaf stage, application rate 320 g/ha, rated visually after about 3 weeks vs untreated controls
Excerpt: as §3, §4, §5

[19] = Table B6, one-leaf stage, rated visually after about 3 weeks vs untreated controls

Cc1ccc2c(c1)[C@H](Nc1nc3n(n1)CCN(S(=O)(=O)C(C)C)C3)CCC2 [Example I-199]
Herbicidal efficacy against SETVI (Setaria viridis [1]): 100%
Herbicidal efficacy against ECHCG (Echinochloa crus-galli [2]): 100%
Herbicidal efficacy against VERPE (Veronica persica [3]): 100%
Herbicidal efficacy against LOLRI (Lolium rigidum [4]): 100%
Herbicidal efficacy against VIOTR (Viola tricolor [5]): 100%
Herbicidal efficacy against ABUTH (Abutilon theophrasti [6]): 100%
herbicidal efficacy against harmful plants (harmful plants [7]): very good herbicidal efficacy
Herbicidal efficacy against STEME (Stellaria media [8]): 100%
Herbicidal efficacy against MATIN (Matricaria inodora): 100%
Herbicidal efficacy against POLCO (Polygonum convolvulus): 100%
Herbicidal efficacy against AMARE (Amaranthus retroflexus [9]): 100%

Cc1ccc2c(c1)C(Nc1nc3n(n1)CCC(=O)N3C)CCC2 (stereo not shown) [Example I-231]
Herbicidal efficacy against SETVI (Setaria viridis [1]): 100%
Herbicidal efficacy against ECHCG (Echinochloa crus-galli [2]): 100%
Herbicidal efficacy against VERPE (Veronica persica [3]): 100%
Herbicidal efficacy against VIOTR (Viola tricolor [10]): 90%
Herbicidal efficacy against LOLRI (Lolium rigidum [4]): 100%
Herbicidal efficacy against STEME (Stellaria media [11]): 80%
Herbicidal efficacy against VIOTR (Viola tricolor [5]): 100%
Herbicidal efficacy against ABUTH (Abutilon theophrasti [6]): 100%
herbicidal efficacy against harmful plants (harmful plants [7]): very good herbicidal efficacy
Herbicidal efficacy against STEME (Stellaria media [8]): 100%
Herbicidal efficacy against MATIN (Matricaria inodora): 100%
Herbicidal efficacy against AMARE (Amaranthus retroflexus [12]; rated visually after about 3 weeks): 80%
Herbicidal efficacy against ECHCG (Echinochloa crus-galli [13]): 100%
Herbicidal efficacy against POLCO (Polygonum convolvulus): 100%
Herbicidal efficacy against LOLRI (Lolium rigidum [14]): 80%
Herbicidal efficacy against AMARE (Amaranthus retroflexus [9]): 100%
Herbicidal efficacy against VERPE (Veronica persica [15]; rated visually after about 3 weeks (Table B5)): 90%
herbicidal efficacy against harmful plants (harmful plants [16]): very good herbicidal efficacy

Cc1ccc2c(c1)[C@H](Nc1nc3n(n1)CCCCS3)CCO2 [Example I-377]
Herbicidal efficacy against SETVI (Setaria viridis [1]): 100%
Herbicidal efficacy against ECHCG (Echinochloa crus-galli [2]): 100%
Herbicidal efficacy against VERPE (Veronica persica [3]): 100%
Herbicidal efficacy against LOLRI (Lolium rigidum [4]): 100%
Herbicidal efficacy against ABUTH (Abutilon theophrasti [17]): 80%
Herbicidal efficacy against SETVI (Setaria viridis [18]): 90%
Herbicidal efficacy against VIOTR (Viola tricolor [5]): 100%
Herbicidal efficacy against ABUTH (Abutilon theophrasti [6]): 100%
Herbicidal efficacy against STEME (Stellaria media [8]): 100%
Herbicidal efficacy against MATIN (Matricaria inodora): 100%
Herbicidal efficacy against AMARE (Amaranthus retroflexus [12]; [19]): 80%
Herbicidal efficacy against POLCO (Polygonum convolvulus): 100%
Herbicidal efficacy against AMARE (Amaranthus retroflexus [9]): 100%
Herbicidal efficacy against VERPE (Veronica persica [15]; [19]): 90%
